Test systems include HCT-15; RXF 393; NCI-H23; SR; SN12C; SK-MEL-2; Malme-3M; OVCAR-4; MDA-N; SNB-19; M14; SK-MEL-5; RPMI-8226; Hs-578T; UACC-257; SF-295; UO-31; TK-10; OVCAR-3; CCRF-CEM.
Holding throughout (assay): growth of human tumour cells (NCI), 48 h

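Results reflect a 48-hour exposure of cells in 96-well plates to compound at five concentrations. GI50 is the concentration that inhibits growth by half.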 The source made the active and inactive calls. Rule as the data show it: active = GI50 up to about 1.1 µM and inactive = higher. Some results are limits rather than exact numbers.

On to `O=C(O)CSCC(=O)c1ccccc1`, for which the GI50 with HCT-15 was over 100 µM; in the assay on RXF 393 it was > 100 µM (inactive); with NCI-H23 it was > 100 µM (inactive); in the assay with SR, > 100 µM (inactive); with SN12C, > 100 µM (inactive); in the assay with SK-MEL-2, > 100 µM (inactive). Further, the GI50 in the assay with Malme-3M, with OVCAR-4, in the assay on MDA-N, with SNB-19, with M14 and in the assay on SK-MEL-5 was > 100 µM (inactive) in each case. Moreover, the GI50 with RPMI-8226, in the assay with Hs-578T, in the assay with UACC-257, in the assay with SF-295, in the assay on UO-31 and with TK-10 was > 100 µM (inactive) each time. In the assay on OVCAR-3, the GI50 is > 100 µM (inactive).

`COC(=O)c1nc(-c2nc(CCNC(=O)OC(C)(C)C)sc2Cl)sc1Cl`: the GI50 was 36.3 µM with HCT-15; > 100 µM (inactive) in the assay with RXF 393; 44.7 µM (inactive) in the assay on NCI-H23; 35.2 µM (inactive) with SR; > 10 µM (inactive) in the assay on SN12C; 66.8 µM (inactive) in the assay on Malme-3M. Besides, the GI50 was 49.9 µM (inactive) in the assay with MDA-N; > 100 µM (inactive) in the assay with SNB-19; 32.2 µM (inactive) with CCRF-CEM; 32.1 µM (inactive) in the assay with M14; 31.8 µM (inactive) in the assay with SK-MEL-5; 41.1 µM (inactive) in the assay with RPMI-8226. The GI50 in the assay on Hs-578T is > 100 µM (inactive); in the assay on UACC-257, > 100 µM (inactive); with SF-295, > 100 µM (inactive); in the assay with UO-31, 89.7 µM (inactive); in the assay on TK-10 it was > 100 µM (inactive); in the assay on OVCAR-3 it was 68.9 µM (inactive).

Take `COc1ccc(/C=C(\NC(=O)c2ccccc2)C(=O)NN(C)c2ccnc3cc(Cl)ccc23)cc1OC`: the GI50 in the assay on HCT-15 is 24.7 µM; in the assay on RXF 393 it was 18.9 µM (inactive); in the assay with NCI-H23, 24 µM (inactive); in the assay with SR, 16.2 µM (inactive); in the assay on SN12C it was 25.9 µM (inactive); in the assay on SK-MEL-2 it was 21.3 µM (inactive). In addition, the GI50 was 26.1 µM (inactive) with Malme-3M; 30.7 µM (inactive) in the assay on OVCAR-4; 24.5 µM (inactive) with MDA-N; 41.2 µM (inactive) with SNB-19; 22.6 µM (inactive) with M14; 23.6 µM (inactive) in the assay with SK-MEL-5. The GI50 was 20 µM (inactive) with RPMI-8226; 52.8 µM (inactive) in the assay on Hs-578T; 26.4 µM (inactive) in the assay with UACC-257; 36.2 µM (inactive) in the assay on SF-295; 28.2 µM (inactive) with UO-31; 36.7 µM (inactive) with TK-10. For the same compound, in the assay on OVCAR-3, the GI50 was 27.6 µM (inactive).

As to `C=C(CCOC)CCC1CCCCC(CN(C)C)C1=O` (centres undefined), the GI50 was over 100 µM in the assay on HCT-15; > 100 µM (inactive) in the assay on RXF 393; > 100 µM (inactive) in the assay with NCI-H23; > 100 µM (inactive) in the assay with SR; > 100 µM (inactive) in the assay with SN12C; > 100 µM (inactive) in the assay on SK-MEL-2. The GI50 with Malme-3M, in the assay with OVCAR-4, in the assay with MDA-N, in the assay on SNB-19, in the assay on CCRF-CEM and with M14 was > 100 µM (inactive) throughout. The GI50 in the assay with SK-MEL-5, in the assay with RPMI-8226, with Hs-578T, with SF-295, in the assay with UO-31 and with OVCAR-3 was > 100 µM (inactive) throughout.

`Cc1c(OCc2cccc3ccccc23)ccc2c(O)cc(=S)oc12`: the GI50 in the assay on HCT-15 was 35.3 µM; in the assay on RXF 393 it was 57.9 µM (inactive); in the assay on NCI-H23 it was 25.7 µM (inactive); in the assay on SR it was 28.7 µM (inactive); in the assay on SN12C, 48.4 µM (inactive); in the assay on SK-MEL-2, 19.4 µM (inactive). Besides, the GI50 in the assay on OVCAR-4 is 29 µM (inactive); in the assay with MDA-N it was 43.4 µM (inactive); in the assay with SNB-19 it was 37.6 µM (inactive); with CCRF-CEM, 22.1 µM (inactive); in the assay with M14, 34.8 µM (inactive); in the assay on SK-MEL-5 it was 18.5 µM (inactive). Also, the GI50 is 34.8 µM (inactive) in the assay on Hs-578T; 46.3 µM (inactive) in the assay with UACC-257; 29.8 µM (inactive) in the assay with SF-295; 33.6 µM (inactive) in the assay on UO-31; 56.5 µM (inactive) in the assay with TK-10; 22.9 µM (inactive) in the assay with OVCAR-3.

As to `Cc1nc2cccc(F)c2c(=O)n1-c1nnc(C(F)(F)F)s1`, the GI50 is over 10 µM with HCT-15; > 10 µM (inactive) in the assay on RXF 393; > 10 µM (inactive) in the assay with NCI-H23; > 10 µM (inactive) in the assay on SR; > 10 µM (inactive) in the assay with SN12C; > 10 µM (inactive) with SK-MEL-2. The GI50 with OVCAR-4, in the assay with MDA-N, in the assay with SNB-19, with CCRF-CEM, in the assay on M14 and with SK-MEL-5 was > 10 µM (inactive) in each case. Further, the GI50 with RPMI-8226, with Hs-578T, with UACC-257, with SF-295, in the assay with UO-31 and in the assay on TK-10 was > 10 µM (inactive) throughout. The GI50 in the assay with OVCAR-3 was > 10 µM (inactive).

Turning to `COc1ccc(/C=c2/[nH]c(=O)/c(=C\c3ccc(OCc4ccccc4)cn3)[nH]c2=O)cc1`, the GI50 with HCT-15 is 38.6 µM; with RXF 393, 23.2 µM (inactive); in the assay with NCI-H23 it was > 100 µM (inactive); with SR, 20.8 µM (inactive); in the assay with SN12C, > 100 µM (inactive); in the assay with SK-MEL-2, 51.8 µM (inactive). Also, the GI50 in the assay on Malme-3M was > 100 µM (inactive); in the assay with OVCAR-4, > 100 µM (inactive); with MDA-N, 19.8 µM (inactive); with SNB-19, 34.4 µM (inactive); in the assay on CCRF-CEM it was 13.9 µM (inactive); in the assay with M14, 62.8 µM (inactive). Moreover, the GI50 in the assay with SK-MEL-5 was 50.2 µM (inactive); in the assay with Hs-578T it was 57.5 µM (inactive); with UACC-257, > 100 µM (inactive); with SF-295, 40.6 µM (inactive); with UO-31, 0.889 µM (active); in the assay with TK-10, 71.9 µM (inactive). Further, the GI50 in the assay with OVCAR-3 was > 100 µM (inactive).

Turning to `NC(=O)NCCSC1CCCCC1O` (centres undefined), the GI50 was over 100 µM in the assay with HCT-15; > 100 µM (inactive) in the assay with RXF 393; > 100 µM (inactive) in the assay with NCI-H23; > 100 µM (inactive) with SR; > 100 µM (inactive) with SN12C; > 100 µM (inactive) in the assay on SK-MEL-2. Also, the GI50 with Malme-3M, in the assay with OVCAR-4, in the assay on MDA-N, in the assay on SNB-19, in the assay with M14 and in the assay with SK-MEL-5 was > 100 µM (inactive) each time. Moreover, the GI50 in the assay with RPMI-8226, with Hs-578T, in the assay with UACC-257, in the assay on SF-295, with UO-31 and with TK-10 was > 100 µM (inactive) each time. Moreover, the GI50 in the assay on OVCAR-3 is > 100 µM (inactive).

The values are drawn from ChEMBL document CHEMBL1201862, “PubChem BioAssay data set” (2004).
